Source: patent US10745731B2, “Recombinant production method” (Hoffmann-La Roche Inc., priority 2015, dated 2020)
Read-outs that look alike come from different tables or passages of the source.

Legend:
[1] = system: HDAC; conditions: description from the literature; cited from earlier work
[2] = system: HEK293F cells; assay: Transient gene expression in HEK293F cells: IgG concentration / titer (turbidimetric test); format: cell-based, human; conditions: for relative IgG concentration / relative titer: none=100
Description: (§1) Transient gene expression is a 5-7 days lasting procedure. The standard operating procedure of this expression system is applicable to shaker flasks with various volumes of cell culture ranging from 80 mL to 2 L. First, half of the cell culture volume is seeded at a viable cell density (VCD) of 8*10^5 cells/mL. After two days of cultivation, cells are split to a VCD of about 12*10^5 cells/mL. On the next day, cells are transfected with a polyethylene imine (PEI)-based transfection reagent at a VCD between 20*10^5 cells/mL and 25*10^5 cells/mL. 3 hours after transfection, the production enhancer (if any) is added. 24 h after transfection, a feeding solution and a glucose bolus is supplemented to avoid the limitation of nutrients. Depending on cell viability, which should not decrease below 50%, the supernatant is harvested five to seven days post transfection and subjected to antibody purification.
(§2) To compare transient gene expression rates always the same plasmids encoding for one distinct antibody were co-transfected.
(§3) To co-transfect two plasmids equimolarily, the ratio of the base pair number of one plasmid to the total base pair number was calculated and multiplied with the total amount of DNA (0.5 mg/L). Plasmid one has a size of 10530 bp and plasmid two has a size of 7184 bp and were solved in water to a final concentration of 1 mg/mL. For transfection of one liter cell culture, 297 μL of plasmid one and 203 μl of plasmid two were dissolved in 40 mL phosphate buffered saline (PBS) at room temperature. 1.25 mL JetPEI® solution was added and the solution was mixed well. After incubation for 10-15 min., the mixture was added to the cells. The cells were transfected in a batch containing the whole cell culture necessary for every experiment to avoid variance arising from different transfection efficiencies.
(§4) 80 mL of the transfected cell culture batch was added to a 125 ml shaker flask. For every experiment, two or three 125 mL shaker flasks were used as biological replicates and treated the same way. Three hours after transfection, cells were split into 125 mL shaker flasks and the cellular treatments with small molecules or ligands were started. Basal protein expression was determined by untreated control samples. To compare samples with the standard operating procedure, cells were also treated with VPA to a final concentration of 4 mM or 3 mM. VPA and its analogues were dissolved in double distilled water. […] Tumor necrosis factor (TNF) alpha was reconstituted with PBS supplemented with 0.1% BSA. Flagellin was dissolved in sterile double distilled water. The applied molecules were not added to the cultivation directly, but diluted in 16 mL medium pre-warmed to 36.5° C. and added to the cultivation thereafter.
(§5) 24 h after transfection a feeding solution at 36.5° C. and 3 mg/mL glucose were added to the cultivation.
Total concentration of the transiently expressed antibody was determined by a turbidimetric test. One mL cell suspension was transferred into an Eppendorf cup and centrifuged for 10 min. at 10,000 rpm (9,300 g). The supernatant was transferred into a new cup and subjected to Cobas Integra 400 plus (Roche) analysis. With comparison to internal standard the absolute concentration was calculated.

[3] = system: HEK293F cells; assay: Transient gene expression in HEK293F cells: cell specific productivity of the expressed antibody; format: cell-based, human; conditions: for cell specific productivity with BAY11-7082 addition compared to the single treatment: 15 μM BAY11-7082 added 24 h after transfection; for specific productivity after 96 hours: none 2.01; for Mean cell specific productivity: untreated 1.71; for Effect on titer/SPR: summary table
Description: HEK293F cells were cultivated in F17 medium (Life Technologies) in shaker flasks at 36.5° C., 7.0% CO2 and 80% humidity in a shaker incubator (Kuhner, Mytron). Cells were split every three to four days and were cultivated no longer than five weeks. To avoid overgrowth and to keep them in the exponential phase of growth, viable cell densities (VCD) never exceeded 60*10^5 cells/mL.
as §1, §2, §3, §4, §5
(§6) To determine cell viability and viable cell density (VCD) 1 mL cultivation medium (cell suspension) was transferred into a Cedex low fouling sample cup. The cup was placed into a Vicell instrument (Beckman Coulter). The instrument mixes cells with trypan blue to stain dead cells. After analysis of 50 images VCD was calculated and viability was determined by calculation of the percentage of viable cell number in relation to the total cell number.
Total concentration of the transiently expressed antibody was determined by a turbidimetric test. One mL cell suspension was transferred into an Eppendorf cup and centrifuged for 10 min. at 10,000 rpm (9,300 g).

[4] = system: HEK293F cells; format: cell-based; conditions: for growth inhibition and cell death: in contrast to other HDACi tested
Description: as §6

[5] = system: HDAC; assay: in situ HDAC activity fluorimetric assay in HEK293F cells; format: cell-based, human; conditions: for HDACi: N=3, FIG. 3A; for HDAC inhibition: yes/no, summary table
Description: HDAC activity was determined by the in situ HDAC activity fluorimetric assay kit (Biovision) according to the manufacturer's instructions. HEK293F cells were suspended in F17 medium (Life Technologies) to a cell density of 5*10^5 cells/mL. One hundred micro liter culture was pipetted per well into a black ELISA plate. The plate was centrifuged at 1000 g for 5 min. The supernatant was discarded and the cells were resuspended in a reaction mix containing F17 medium, 1% HDAC substrate and the molecule tested towards HDAC inhibitory activity. 10 μM Trichostatin A was used as a positive control and the basal HDAC activity was determined by re-suspending the cells in F17 medium with 1% HDAC substrate. Furthermore, cells were resuspended in F17 medium without HDAC substrate as a background control. The HDAC activity assay was performed in triplicates for every sample as well as every control. The 96-well plate was incubated at 36.5° C., 80% humidity and 7% CO2 for one hour. During this time, the active HDACs deacetylate the HDAC substrate what releases the quenched fluorescent signal of the substrate. After incubation the fluorescent signal was analyzed by the infinite fluorescence plate reader (TECAN). The fluorescence signal of the samples and controls was normalized by subtracting the fluorescence signal of the background control. It is assumed that the fluorescent signal arising from deacetylation of the substrate directly correlates with HDAC activity.

[6] = Homo sapiens, HEK293F, 3 mM, single treatment, none=100, N=3, read-out: relative cell specific productivity
[7] = Homo sapiens, HEK293F, 3 mM, transfected control=100, N=3, FIG. 3B, read-out: relative cell specific productivity

## CC/C=C(\C)C(=O)O [2M2P, trans-2-methyl 2-pentenoic acid]
[1]
  HDAC inhibitory activity: very weak to no HDAC inhibitory activity
[2]; 3 mM, 2M2P/Quisinostat combination study, N=3
  relative IgG concentration: 146%
[2]; 3 mM, VPA/2M2P combination study, N=3
  relative IgG concentration: 146%
[2]; 3 mM, N=3, FIG. 6B
  relative IgG concentration: 128%
[2]; 3 mM, N=3, FIG. 9B
  relative IgG concentration: 128%
[2]; 2M2P concentration 3 mM, N=2
  relative titer: 165%
[2]; 2M2P concentration 6 mM, N=2
  relative titer: 257%
[2]; 2M2P concentration 7 mM, N=2
  relative titer: 258%
[2]; 2M2P concentration 8 mM, N=2
  relative titer: 172%
[2]; 2M2P concentration 9 mM, N=2
  relative titer: 120%
[2]; 2M2P concentration 10 mM, N=2
  relative titer: 42%
[2]; 2M2P concentration 11 mM, N=2
  relative titer: 0%
[3]
  cell specific productivity with BAY11-7082 addition compared to the single treatment: No reduction
[3]; 3 mM, in words
  protein expression yields compared to the negative control: clearly increased
[3]; 3 mM, single treatment, N=3
  specific productivity after 96 hours: 2.40 pg/cell/day
[3]; Homo sapiens, HEK293F, 3 mM, 2M2P/Quisinostat combination study, none=100, N=3, read-out: relative cell specific productivity
  activity at 3000 µM: 169%
[3]; Homo sapiens, HEK293F, 3 mM, VPA/2M2P combination study, none=100, N=3, read-out: relative cell specific productivity
  activity at 3000 µM: 169%
[3]; Homo sapiens, HEK293F, 3 mM, none=100, N=3, FIG. 6A, read-out: relative cell specific productivity
  activity at 3000 µM: 131%
[3]; Homo sapiens, HEK293F, 3 mM, none=100, N=3, FIG. 9A, read-out: relative cell specific productivity
  activity at 3000 µM: 131%
[3]; [6]
  activity at 3000 µM: 144%
[3]; [7]
  activity at 3000 µM: 191%
[3]; Homo sapiens, HEK293F, employed concentration 2 mM, none=100, N=2, FIG. 4, read-out: relative cell specific productivity
  activity at 2000 µM: 123%
[3]; Homo sapiens, HEK293F, employed concentration 3 mM, none=100, N=2, FIG. 4, read-out: relative cell specific productivity
  activity at 3000 µM: 196%
[3]; conc. 3 mM
  Mean cell specific productivity: 5.4 (3 mM) pg/cell/24 h
[4]; human, 11 mM
  toxicity (remark in titer cell): toxic
[5]; 3 mM
  HDACi: 9.4%
[5]
  HDAC inhibition: no

## Cl.Cn1cc(CNCC2CCN(c3ncc(C(=O)NO)cn3)CC2)c2ccccc21 [Quisinostat]
[1]
  HDAC class / isoform selectivity: very potent broad spectrum HDAC inhibitor with highest potency towards HDAC 1, 2, 4, and 11
[2]; 300 nM, 2M2P/Quisinostat combination study, N=3
  relative IgG concentration: 169%
[2]; 300 nM, VPA/Quisinostat combination study, N=3
  relative IgG concentration: 169%
[3]; 300 nM, single treatment, N=3
  specific productivity after 96 hours: 3.89 pg/cell/day
[3]
  cell specific productivity with BAY11-7082 addition compared to the single treatment: significantly reduced
[3]; Homo sapiens, HEK293F, 300 nM, 2M2P/Quisinostat combination study, none=100, N=3, read-out: relative cell specific productivity
  activity at 0.3 µM: 258%
[3]; Homo sapiens, HEK293F, 300 nM, VPA/Quisinostat combination study, none=100, N=3, read-out: relative cell specific productivity
  activity at 0.3 µM: 258%
[3]; Homo sapiens, HEK293F, 300 nM, single treatment, none=100, N=3, read-out: relative cell specific productivity
  activity at 0.3 µM: 218%
[3]; Homo sapiens, HEK293F, 300 nM, transfected control=100, N=3, FIG. 3B, read-out: relative cell specific productivity
  activity at 0.3 µM: 339%
[3]; Homo sapiens, HEK293F, employed concentration 300 nM, none=100, N=2, FIG. 2B, read-out: relative cell specific productivity
  activity at 0.3 µM: 279%
[3]; conc. 300 mM (so in the source)
  Mean cell specific productivity: 1.71 (300 mM) pg/cell/24 h
[3]; in words
  Effect on titer/SPR: strong
[4]
  growth inhibition and cell death: induce growth inhibition and cell death
[5]; 300 nM
  HDACi: 69%
[5]
  HDAC inhibition: yes

## CCCC(CCC)C(=O)O [valproic acid, 2-propylpentanoic acid]
[2]; 2 mM, VPA/2M2P combination study, N=3
  relative IgG concentration: 217%
[2]; 2 mM, VPA/Quisinostat combination study, N=3
  relative IgG concentration: 217%
[2]; 3 mM, none 39.8, N=3
  final titer: 68.8 mg/L
[2]; 3 mM, N=1
  relative titer: 188%
[2]; 4 mM, N=3, FIG. 6B
  relative IgG concentration: 173%
[2]; 4 mM, N=3, FIG. 8B
  relative IgG concentration: 173%
[2]; 4 mM, N=3, FIG. 9B
  relative IgG concentration: 173%
[3]
  cell specific productivity with BAY11-7082 addition compared to the single treatment: significantly reduced
[3]; 3 mM, single treatment, N=3
  specific productivity after 96 hours: 4.92 pg/cell/day
[3]; Homo sapiens, HEK293F, 0.5 mM, sole enhancer, control=100, N=2, FIG. 1, read-out: relative cell specific productivity
  activity at 500 µM: 184%
[3]; Homo sapiens, HEK293F, 1 mM, sole enhancer, control=100, N=2, FIG. 1, read-out: relative cell specific productivity
  activity at 1000 µM: 204%
[3]; Homo sapiens, HEK293F, 2 mM, VPA/2M2P combination study, none=100, N=3, read-out: relative cell specific productivity
  activity at 2000 µM: 278%
[3]; Homo sapiens, HEK293F, 2 mM, VPA/Quisinostat combination study, none=100, N=3, read-out: relative cell specific productivity
  activity at 2000 µM: 278%
[3]; Homo sapiens, HEK293F, 2 mM, sole enhancer, control=100, N=2, FIG. 1, read-out: relative cell specific productivity
  activity at 2000 µM: 246%
[3]; [6]
  activity at 3000 µM: 237%
[3]; Homo sapiens, HEK293F, 3 mM, sole enhancer, control=100, N=2, FIG. 1, read-out: relative cell specific productivity
  activity at 3000 µM: 284%
[3]; [7]
  activity at 3000 µM: 316%
[3]; Homo sapiens, HEK293F, 4 mM, sole enhancer, control=100, N=2, FIG. 1, read-out: relative cell specific productivity
  activity at 4000 µM: 273%
[3]; Homo sapiens, HEK293F, 6 mM, sole enhancer, control=100, N=2, FIG. 1, read-out: relative cell specific productivity
  activity at 6000 µM: 223%
[3]; Homo sapiens, HEK293F, employed concentration 4 mM, none=100, N=2, FIG. 2B, read-out: relative cell specific productivity
  activity at 4000 µM: 326%
[3]; Homo sapiens, HEK293F, employed concentration 4 mM, none=100, N=2, FIG. 4, read-out: relative cell specific productivity
  activity at 4000 µM: 315%
[3]; conc. 3 mM
  Mean cell specific productivity: 5.4 (3 mM) pg/cell/24 h
[3]; in words
  Effect on titer/SPR: strong
[4]
  growth inhibition and cell death: induce growth inhibition and cell death
[5]; 3 mM
  HDACi: 58%
[5]
  HDAC inhibition: yes
